Experimental data as given in US20260240761A1, “ORAL FILM UNIT DOSAGE FORM” (SWIPP AB, priority 2023, published 2026).
Where a name gives a salt, the structure may show the parent alone.

Key:
[1] = Solvent screening: solubility of midazolam hydrochloride in process solvents; format: physicochemical
Experimental: For each solvent, four test tubes were prepared, containing about 1 g solvent and midazolam hydrochloride at amounts of about 0.1 wt %, 1 wt %, 4 wt % and 7 wt %, respectively. The tubes were thoroughly mixed and were then visually observed and photographed. After 15 minutes of resting, they were again visually observed and photographed, and were then mixed again. After another 1 hour, they were finally visually observed and photographed. It was noted whether there were any undissolved solid material remaining, approximately how much, and whether it had sedimented at the bottom or formed a whitish suspension, and if that suspension was translucent or opaque. No analytical method, e.g., HPLC Assay, was used to actually quantify the precise solubilities because the main aim was just to determine whether the midazolam hydrochloride was predominately dissolved or solid, at 4 wt % and 7 wt % respectively, which represent typical levels for the midazolam hydrochloride content in a wet mix. If midazolam hydrochloride was predominately […] at 7 wt %, the solvent was deemed to be potentially very feasible.

[2] = XRPD of sedimented material from the solvent screening; format: physicochemical; conditions: solvent evaporated at ambient temperature
Experimental: Test tubes prepared with ethanol and ethyl acetate, respectively, corresponding to the last step in Example 14, were prepared and allowed to sediment overnight. The solvents in each sample of sedimented material were slowly evaporated off at ambient temperature and atmospheric pressure. It was then subjected to the XRPD method described in Example 12 except that only steps 1-2 of that method were performed, and that the reference “API raw material” recorded in step 1 was midazolam hydrochloride and not midazolam base.

For `Cc1ncc2n1-c1ccc(Cl)cc1C(c1ccccc1F)=NC2` [midazolam hydrochloride], the “Visual appearance at last observation” value ([1]; 1-pentanol, 0.1 wt %) was “clear”, the “Visual appearance at last observation” value ([1]; 1-pentanol, 1 wt %) was “translucent” and the “Visual appearance at last observation” value ([1]; 1-pentanol, 4 wt %) was “opaque”. The “Visual appearance at last observation” value ([1]; 1-pentanol, 7 wt %) was “opaque”, the “Visual appearance at last observation” value ([1]; 2-propanol, 0.1 wt %) was “clear” and the “Visual appearance at last observation” value ([1]; 2-propanol, 1 wt %) was “translucent”. The “Visual appearance at last observation” value ([1]; 2-propanol, 4 wt %) was “opaque”, the “Visual appearance at last observation” value ([1]; 2-propanol, 7 wt %) was “opaque” and the “Visual appearance at last observation” value ([1]; acetone, 0.1, 1, 4 and 7 wt %) was “clear supernatant over sedimented”. The “Visual appearance at last observation” value ([1]; ethanol, 0.1 wt %) was “clear”, the “Visual appearance at last observation” value ([1]; ethanol, 1 wt %) was “clear” and the “Visual appearance at last observation” value ([1]; ethanol, 4 wt %) was “opaque”. For the same compound, the “Visual appearance at last observation” value ([1]; ethanol, 7 wt %) was “opaque”, the “Visual appearance at last observation” value ([1]; ethyl acetate, 0.1 wt %) was “cloudy” and the “Visual appearance at last observation” value ([1]; ethyl acetate, 1 wt %) was “opaque”. For the same compound, the “Visual appearance at last observation” value ([1]; ethyl acetate, 4 wt %) was “opaque”, the “Visual appearance at last observation” value ([1]; ethyl acetate, 7 wt %) was “opaque” and the “Solubility (tentative interpretation)” value ([1]; in 1-pentanol) was “Solubility is between 0.1-1 wt %”. For the same compound, the “Solubility (tentative interpretation)” value ([1]; in 2-propanol) was “Solubility is between 0.1-1 wt %”, the “Solubility (tentative interpretation)” value ([1]; in acetone) was “Solubility is ≤0.1 wt %. Solvent” and the “Solubility (tentative interpretation)” value ([1]; in ethanol) was “Solubility is between 1-4 wt %”. For the same compound, the “Solubility (tentative interpretation)” value ([1]; in ethyl acetate) was “Solubility is ≤0.1 wt %. Solvent”, the “Solubility (tentative interpretation)” value ([1]; in isobutyl acetate) was “Solubility is ≤0.1 wt %. Solvent” and the “Solubility (tentative interpretation)” value ([1]; in methyl acetate) was “Solubility is ≤0.1 wt %. Solvent”. The “Visual appearance at last observation” value ([1]; isobutyl acetate, 0.1 wt %) was “cloudy”, the “Visual appearance at last observation” value ([1]; isobutyl acetate, 1 wt %) was “opaque” and the “Visual appearance at last observation” value ([1]; isobutyl acetate, 4 wt %) was “opaque”. The “Visual appearance at last observation” value ([1]; isobutyl acetate, 7 wt %) was “opaque”, the “Visual appearance at last observation” value ([1]; methyl acetate, 0.1 wt %) was “cloudy” and the “Visual appearance at last observation” value ([1]; methyl acetate, 1 wt %) was “opaque”. The “Visual appearance at last observation” value ([1]; methyl acetate, 4 wt %) was “opaque”, the “Visual appearance at last observation” value ([1]; methyl acetate, 7 wt %) was “opaque” and the “XRPD identity of sedimented material” value ([2]; sediment from ethanol) was “a solid crystalline material that was not midazolam hydrochloride”. The “XRPD identity of sedimented material” value ([2]; sediment from ethyl acetate) was “appeared to be identical to midazolam hydrochloride”.
